Measurements as given in publication PMC4411898, “Impact of kinesin Eg5 inhibition by 3,4-dihydropyrimidin-2(1H)-one derivatives on various breast cancer cell features” (BMC Cancer, 2015).

Legend:
MDA-MB-231 cells [1] = test: Apoptosis and necrosis assay (Annexin-V/PI flow cytometry), MDA-MB-231; assay type: cell-based, human; conditions: 72 h; 4m 1.0 mM, 4bt 0.8 mM, 4p 0.4 mM, 4bc 1.0 mM, 4x 0.8 mM
Protocol: (§1) For proliferation assays, cells were treated with IC50 concentrations of each compound. Adherent and floating cells were harvested at the same tube and pelleted by centrifugation at 300 g for 5 minutes and stained. Data acquisition of these two fractions put together was performed on a FACSCalibur flow cytometer using CellQuest software and analysed using the FloJo Software. Untreated control cells and DHPMs-treated for 72 h cell samples were stained with Annexin-V-FITC or Annexin-V-Alexa Fluor® 680 and propidium iodide according to the manufacturer’s instructions.

MCF-7 cells [2] = test: Cell cycle analysis (PI), MCF-7; assay type: cell-based, human; conditions: 4m 1 mM, 4bt 0.8 mM, 4p 0.4 mM, 4bc 1.0 mM, 4x 0.8 mM
Protocol: For proliferation assays, cells were treated with IC50 concentrations of each compound. Adherent and floating cells were harvested at the same tube and pelleted by centrifugation at 300 g for 5 minutes and stained. Data acquisition of these two fractions put together was performed on a FACSCalibur flow cytometer using CellQuest software and analysed using the FloJo Software. Control and DHPM-treated cells were harvested at 24, 48 and 72 h, resuspended in ice-cold PBS and fixed with 70% ethanol on ice. Cells were then washed with PBS, harvested and incubated with propidium iodide solution (0.1% Triton X-100, 10 μg/mL propidium iodide, 100 μg/mL DNase free RNase) for 10 min at 37°C. For analysis of cell populations in each cell cycle phase, the sub-G1 picks were excluded and the plots were generated by cell cycle platform data analysis by the FlowJo Software.

MDA-MB-231 cells [3] = test: CD44+/CD24- expression analysis, MDA-MB-231; assay type: cell-based, human; conditions: 24 h; for CD44-/CD24- subpopulation, MDA-MB-231 (mean ± SEM): 4m 1.0 mM, 4bt 0.8 mM, 4p 0.4 mM, 4bc 1.0 mM, 4x 0.8 mM, monastrol 1.0 mM; for CD44-/CD24+ subpopulation, MDA-MB-231 (mean ± SEM) / CD44+/CD24+ subpopulation, MDA-MB-231 (mean ± SEM) / CD44+/CD24- subpopulation, MDA-MB-231 (mean ± SEM): concentrations as E32; for CD44+/CD24+ subpopulation, MDA-MB-231 (mean ± SEM): control 1.507 ± 0.47; for CD44+/CD24- subpopulation, MDA-MB-231 (mean ± SEM): untreated control 98.45 ± 0.47
Protocol: (§2) For proliferation assays, cells were treated with IC50 concentrations of each compound. Adherent and floating cells were harvested at the same tube and pelleted by centrifugation at 300 g for 5 minutes and stained. Data acquisition of these two fractions put together was performed on a FACSCalibur flow cytometer using CellQuest software and analysed using the FloJo Software. Expression level of CD44 and CD24 in treated and control MCF-7 or MDA-MB-231 cells was measured after 24 h of treatment.

MCF-7 cells [4] = test: Morphological alterations under inverted light microscope, MCF-7; assay type: cell-based, human; conditions: 72 h, maximum non-cytotoxic concentration to normal cells
Protocol: Figure 2 DHPM derivatives cause severe morphological alterations on breast cancer cells. MCF-7 and MDA-MB-231 cells were treated with the maximum non-cytotoxic concentration to normal cells for 72 h and morphological alterations analyzed under an inverted light microscope. Cells with elongated morphology, adherent to the surface and normal size are shown by arrows. Cells with size reduction, absence of focal adhesion points, rounded morphology and detached from the surface where they had been seeded are shown by arrowheads.

MCF-7 cells [5] = test: MTT cell viability assay, MCF-7; assay type: cell-based, human; conditions: for IC50: 72 h treatment, MTT, read-out: IC50 MCF-7; for Effect on cell viability, MCF-7: all concentrations tested 100 μM – 1.00 mM, 72 h
Protocol: Absorbance readings were measured by a spectrophotometer. Cell viability was normalized to control (vehicle only).

[6] = test system: Fibroblasts (primary culture from healthy human dental pulp); conditions: fibroblasts, 72 h treatment, MTT
Protocol: MCF-7 cell line and primary culture of connective tissue cells were provided by the Laboratory of Morphology, University of Brasília (Brasília, BR). MDA-MB-231 cells were purchased from Rio de Janeiro Cell Bank (RJCB - Rio de Janeiro, BR). Cell line characterization and authentication was conducted by RJCB using short tandem repeat profiling. Primary culture cells were taken from healthy human dental pulp predominantly consisting of fibroblasts and were used as normal control cells. MCF-7 cells and fibroblasts were grown in complete DMEM and maintained at 37°C with 5% CO2. MDA-MB-231 cells were grown in Leibovitz L15 medium at 37°C without CO2. Culture media were supplemented with 10% fetal bovine serum and 25 μg/mL of gentamicin.
Cytotoxicity was determined using 3-(4,5-dimethylthiazol-2-yl)-2,5-diphenylterazolium bromide (MTT) according to the manufacturer’s instructions. Absorbance readings were measured by a spectrophotometer. Cell viability was normalized to control (vehicle only).

MCF-7 cells [7] = test: Apoptosis and necrosis assay (Annexin-V/PI flow cytometry), MCF-7; assay type: cell-based, human; conditions: 72 h; 4m 1.0 mM, 4bt 0.8 mM, 4p 0.4 mM, 4bc 1.0 mM, 4x 0.8 mM
Protocol: as §1

MCF-7 cells [8] = test: CD44+/CD24- expression analysis, MCF-7; assay type: cell-based, human; conditions: 24 h; for CD44-/CD24- subpopulation, MCF-7 (mean ± SEM): 4m 1.0 mM, 4bt 0.8 mM, 4p 0.4 mM, 4bc 1.0 mM, 4x 0.8 mM, monastrol 1.0 mM; for CD44+/CD24+ subpopulation, MCF-7 (mean ± SEM) / CD44-/CD24+ subpopulation, MCF-7 (mean ± SEM) / CD44+/CD24- subpopulation, MCF-7 (mean ± SEM): concentrations as E28; for CD44+/CD24- subpopulation, MCF-7 (mean ± SEM): control 0.38 ± 0.18
Protocol: as §2

| SMILES | Cell death by apoptosis, % of MDA-MB-231 cell population (MDA-MB-231 cells [1]) | Cell cycle effect, MCF-7, 48 h (MCF-7 cells [2]) | CD44-/CD24- subpopulation, MDA-MB-231 (mean ± SEM) (MDA-MB-231 cells [3]) [%] | CD44-/CD24+ subpopulation, MDA-MB-231 (mean ± SEM) (MDA-MB-231 cells [3]) [%] | CD44+/CD24+ subpopulation, MDA-MB-231 (mean ± SEM) (MDA-MB-231 cells [3]) [%] | CD44+/CD24- subpopulation, MDA-MB-231 (mean ± SEM) (MDA-MB-231 cells [3]) [%] | Morphological alterations, MCF-7 (MCF-7 cells [4]) | IC50 (MCF-7 cells [5]) [µM] | Effect on cell viability, MCF-7 (MCF-7 cells [5]) | Maximum non-cytotoxic concentration to normal cells [6] [mM] | Cell death by apoptosis, % of MCF-7 cell population (MCF-7 cells [7]) | CD44-/CD24- subpopulation, MCF-7 (mean ± SEM) (MCF-7 cells [8]) [%] | CD44+/CD24+ subpopulation, MCF-7 (mean ± SEM) (MCF-7 cells [8]) [%] | CD44-/CD24+ subpopulation, MCF-7 (mean ± SEM) (MCF-7 cells [8]) [%] | CD44+/CD24- subpopulation, MCF-7 (mean ± SEM) (MCF-7 cells [8]) [%] |
| --- | --- | --- | --- | --- | --- | --- | --- | --- | --- | --- | --- | --- | --- | --- | --- |
| CCOC(=O)C1=C(C)NC(=S)NC1c1ccccc1O (stereo not drawn) [Compound 4p] | less pronounced manner | cell cycle arrest at G2/M | 0.02 ± 0.009 | 0.003 ± 0.003 | 5.507 ± 1.13 | 94.45 ± 1.13 | produced the same results | 87.5 | significant decrease in cell viability | 0.4 | less pronounced manner | 2.83 ± 0.59 | 30.40 ± 9.78 | 66.42 ± 10.57 | 0.33 ± 0.20 |
| CC(=O)C1=C(C)NC(=O)NC1c1ccccc1[N+](=O)[O-] (stereo not drawn) [Compound 4x] | less pronounced manner | cell cycle arrest at G2/M | 0.01 ± 0.003 | 0.020 ± 0.0200 | 6.08 ± 2.10 | 93.88 ± 2.12 | no significant alterations | 276 | significant decrease in cell viability | 0.8 | less pronounced manner | 2.45 ± 0.52 | 35.11 ± 19.33 | 61.35 ± 20.83 | 1.065 ± 0.97 |
